Laboratory results from patent US20060293223A1 (Eli Lilly and Company Patent Division, priority 2003, published 2006).
Positions of bridges follow the written chain, without caps; N, C: chain ends. Non-standard residues stand in square brackets, D forms with d. hCys = N[C@@H](CCS)C(=O)O

These substances were tested on MC1/MC4. Details: ratio MC1/MC4.
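Note: ratio of EC50 values obtained at MC1 versus MC4 receptors, with MC1 potency measured by luciferase reporter activity in stably transfected cells expressing human MC1.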

**Q.** Which MC1/MC4 selectivity does the source give for “3-(4-hydroxyphenyl)propionyl-Arg-cyclo[Cys-Glu-His-D-Phe-Arg-Trp-Cys]-NH2 [Compound 66]” here?
**A.** Its MC1/MC4 selectivity is 13.23.

**Q.** How did the MC1/MC4 selectivity turn out when “3-(4-methylbenzoyl)propionyl-Arg-cyclo[Cys-Glu-His-D-Phe-Arg-Trp-Cys]-NH2 [Compound 67]” was run?
**A.** The MC1/MC4 selectivity was 9.15.

**Q.** Which MC1/MC4 selectivity does the source give for “3-guanidinopropionyl-cyclo[Cys-Glu-His-D-Phe-Arg-Trp-Cys]-NH2 [Compound 40]” here?
**A.** Its MC1/MC4 selectivity is 25.92.

**Q.** For “3-guanidinopropionyl-cyclo[hCys-His-D-Phe-Arg-Trp-Cys]-NH2 [Compound 148]”, which MC1/MC4 selectivity is on record?
**A.** The MC1/MC4 selectivity was 51.98.

**Q.** With “4-guanidinobutyryl-cyclo[Cys-Glu-His-D-Phe-Arg-Trp-Cys]-NH2 [Compound 41]” as the substance, how does the MC1/MC4 selectivity read?
**A.** The MC1/MC4 selectivity was 58.47.

**Q.** Which MC1/MC4 selectivity does the source give for “4-phenylbutyryl-cyclo[hCys-His-D-Phe-Arg-Trp-Cys]-NH2 [Compound 147]” here?
**A.** Its MC1/MC4 selectivity is 0.86.

**Q.** Which MC1/MC4 selectivity does the source give for “4-phenylbutyryl-cyclo[hCys-His-D-Phe-Arg-Trp-penicillamine]-NH2 [Compound 174]” here?
**A.** The MC1/MC4 selectivity was 4.98.

**Q.** How did the MC1/MC4 selectivity turn out when “5-guanidinovaleryl-cyclo[Cys-Glu-His-D-Phe-Arg-Trp-Cys]-NH2 [Compound 42]” was run?
**A.** Its MC1/MC4 selectivity is 44.63.

**Q.** Which MC1/MC4 selectivity does the source give for “5-guanidinovaleryl-cyclo[hCys-His-D-Phe-Arg-Trp-Cys]-NH2 [Compound 149]” here?
**A.** Its MC1/MC4 selectivity is 51.85.

**Q.** For “Ac-Arg-cyclo[Cys-Cya-His-D-Phe-Arg-Trp-Cys]-NH2 [Compound 26]”, which MC1/MC4 selectivity is on record?
**A.** The MC1/MC4 selectivity was 38.90.

**Q.** With “Ac-Arg-cyclo[Cys-Glu-(1-Me-His)-(4-Cl-D-Phe)-Arg-Trp-Cys]-NH2 [Compound 87]” as the substance, how does the MC1/MC4 selectivity read?
**A.** Its MC1/MC4 selectivity is 316.25.

**Q.** Which MC1/MC4 selectivity does the source give for “Ac-Arg-cyclo[Cys-Glu-(1-Me-His)-D-Phe-Arg-Trp-Cys]-NH2 [Compound 51]” here?
**A.** Its MC1/MC4 selectivity is 76.75.

**Q.** With “Ac-Arg-cyclo[Cys-Glu-His-(4-Cl-D-Phe)-Arg-Trp-Cys]-NH2 [Compound 50]” as the substance, how does the MC1/MC4 selectivity read?
**A.** Its MC1/MC4 selectivity is 36.10.

**Q.** With “Ac-Arg-cyclo[Cys-Glu-His-D-Phe-Arg-Trp-Cys]-NH2 [Compound 48]” as the substance, how does the MC1/MC4 selectivity read?
**A.** The MC1/MC4 selectivity was 26.80.

**Q.** Which MC1/MC4 selectivity does the source give for “Ac-Arg-cyclo[Cys-Glu-His-D-Phe-Arg-Trp-Cys]-OH [Compound 49]” here?
**A.** The MC1/MC4 selectivity was 35.35.

**Q.** For “Ac-Arg-cyclo[Cys-His-(4-Cl-D-Phe)-Arg-Trp-hCys]-NH2 [Compound 191]”, which MC1/MC4 selectivity is on record?
**A.** The MC1/MC4 selectivity was 127.33.

**Q.** With “Ac-Arg-cyclo[Cys-His-(4-F-D-Phe)-Arg-Trp-hCys]-NH2 [Compound 190]” as the substance, how does the MC1/MC4 selectivity read?
**A.** The MC1/MC4 selectivity was 367.10.

**Q.** Which MC1/MC4 selectivity does the source give for “Ac-CDH[dF]RWC-NH2 (disulfide 1-7) [Compound 6]” here?
**A.** The MC1/MC4 selectivity was 35.74.

**Q.** How did the MC1/MC4 selectivity turn out when “Ac-CEH[dF]RWCKP-NH2 (disulfide 1-7) [Compound 35]” was run?
**A.** Its MC1/MC4 selectivity is 1.17.

**Q.** How did the MC1/MC4 selectivity turn out when “Ac-CEH[dF]RWCSP-NH2 (disulfide 1-7) [Compound 36]” was run?
**A.** Its MC1/MC4 selectivity is 1.22.

**Q.** “Ac-CH[dF]RWC-NH2 (disulfide 1-6) [Compound 1]” was tested. Which MC1/MC4 selectivity did it give?
**A.** Its MC1/MC4 selectivity is 3.91.

**Q.** With “Ac-CKH[dF]RWC-NH2 (disulfide 1-7) [Compound 16]” as the substance, how does the MC1/MC4 selectivity read?
**A.** Its MC1/MC4 selectivity is 2.94.

**Q.** For “Ac-CLH[dF]RWC-NH2 (disulfide 1-7) [Compound 15]”, which MC1/MC4 selectivity is on record?
**A.** Its MC1/MC4 selectivity is 14.75.

**Q.** How did the MC1/MC4 selectivity turn out when “Ac-CQH[dF]RWC-NH2 (disulfide 1-7) [Compound 8]” was run?
**A.** Its MC1/MC4 selectivity is 3.33.

**Q.** Which MC1/MC4 selectivity does the source give for “Ac-Cit-cyclo[Cys-Glu-(1-Me-His)-D-Phe-Arg-Trp-Cys]-NH2 [Compound 56]” here?
**A.** Its MC1/MC4 selectivity is 21.38.

**Q.** For “Ac-Cit-cyclo[Cys-Glu-His-D-Phe-Arg-Trp-Cys]-NH2 [Compound 55]”, which MC1/MC4 selectivity is on record?
**A.** Its MC1/MC4 selectivity is 28.81.

**Q.** How did the MC1/MC4 selectivity turn out when “Ac-D-Arg-cyclo[Cys-Cya-His-D-Phe-Arg-Trp-Cys]-NH2 [Compound 27]” was run?
**A.** The MC1/MC4 selectivity was 30.11.

**Q.** “Ac-D-Arg-cyclo[Cys-Glu-His-D-Phe-Arg-Trp-Cys]-NH2 [Compound 52]” was tested. Which MC1/MC4 selectivity did it give?
**A.** The MC1/MC4 selectivity was 30.54.

**Q.** For “Ac-KCEH[dF]RWC-NH2 (disulfide 2-8) [Compound 58]”, which MC1/MC4 selectivity is on record?
**A.** The MC1/MC4 selectivity was 31.69.

**Q.** With “Ac-LCEH[dF]RWC-NH2 (disulfide 2-8) [Compound 57]” as the substance, how does the MC1/MC4 selectivity read?
**A.** The MC1/MC4 selectivity was 29.00.

**Q.** Which MC1/MC4 selectivity does the source give for “Ac-Lys(ipr)-cyclo[Cys-Glu-His-D-Phe-Arg-Trp-Cys]-NH2 [Compound 59]” here?
**A.** Its MC1/MC4 selectivity is 20.92.

**Q.** With “Ac-Orn-cyclo[Cys-Glu-His-D-Phe-Arg-Trp-Cys]-NH2 [Compound 62]” as the substance, how does the MC1/MC4 selectivity read?
**A.** The MC1/MC4 selectivity was 46.91.

**Q.** “Ac-RCH[dF]RW[hCys]-NH2 (disulfide 2-7) [Compound 189]” was tested. Which MC1/MC4 selectivity did it give?
**A.** The MC1/MC4 selectivity was 23.31.

**Q.** With “Ac-R[hCys]H[dF]RWC-NH2 (disulfide 2-7) [Compound 158]” as the substance, how does the MC1/MC4 selectivity read?
**A.** The MC1/MC4 selectivity was 50.25.

**Q.** With “Ac-R[hCys]H[dF]RWC-OH (disulfide 2-7) [Compound 159]” as the substance, how does the MC1/MC4 selectivity read?
**A.** The MC1/MC4 selectivity was 49.41.

**Q.** How did the MC1/MC4 selectivity turn out when “Ac-Tyr-(1-β-hArg)-cyclo[Cys-Glu-His-D-Phe-Arg-Trp-Cys]-NH2 [Compound 127]” was run?
**A.** Its MC1/MC4 selectivity is 20.25.

**Q.** For “Ac-Tyr-Arg-cyclo[Cys-Cya-His-D-Phe-Arg-Trp-Cys]-NH2 [Compound 28]”, which MC1/MC4 selectivity is on record?
**A.** The MC1/MC4 selectivity was 26.35.

**Q.** With “Ac-Tyr-Arg-cyclo[Cys-Glu-(1-Bom-His)-D-Phe-Arg-Trp-Cys]-NH2 [Compound 101]” as the substance, how does the MC1/MC4 selectivity read?
**A.** Its MC1/MC4 selectivity is 0.97.

**Q.** For “Ac-Tyr-Arg-cyclo[Cys-Glu-(1-Me-D-His)-(4-Br-D-Phe)-Arg-Trp-Cys]-NH2 [Compound 91]”, which MC1/MC4 selectivity is on record?
**A.** The MC1/MC4 selectivity was 21.14.

**Q.** With “Ac-Tyr-Arg-cyclo[Cys-Glu-(1-Me-D-His)-(4-Cl-D-Phe)-Arg-Trp-Cys]-NH2 [Compound 88]” as the substance, how does the MC1/MC4 selectivity read?
**A.** Its MC1/MC4 selectivity is 9.07.

**Q.** “Ac-Tyr-Arg-cyclo[Cys-Glu-(1-Me-D-His)-(4-F-D-Phe)-Arg-Trp-Cys]-NH2 [Compound 85]” was tested. Which MC1/MC4 selectivity did it give?
**A.** The MC1/MC4 selectivity was 2.66.

**Q.** “Ac-Tyr-Arg-cyclo[Cys-Glu-(1-Me-D-His)-(4-OMe-D-Phe)-Arg-Trp-Cys]-NH2 [Compound 95]” was tested. Which MC1/MC4 selectivity did it give?
**A.** Its MC1/MC4 selectivity is 3.21.

**Q.** How did the MC1/MC4 selectivity turn out when “Ac-Tyr-Arg-cyclo[Cys-Glu-(1-Me-D-His)-D-Phe-Arg-Trp-Cys]-NH2 [Compound 82]” was run?
**A.** The MC1/MC4 selectivity was 1.66.

**Q.** “Ac-Tyr-Arg-cyclo[Cys-Glu-(1-Me-His)-(4-Br-D-Phe)-Arg-Trp-Cys]-NH2 [Compound 90]” was tested. Which MC1/MC4 selectivity did it give?
**A.** Its MC1/MC4 selectivity is 237.22.

**Q.** How did the MC1/MC4 selectivity turn out when “Ac-Tyr-Arg-cyclo[Cys-Glu-(1-Me-His)-(4-F-D-Phe)-Arg-Trp-Cys]-NH2 [Compound 84]” was run?
**A.** The MC1/MC4 selectivity was 150.60.

**Q.** Which MC1/MC4 selectivity does the source give for “Ac-Tyr-Arg-cyclo[Cys-Glu-(1-Me-His)-(4-OMe-D-Phe)-Arg-Trp-Cys]-NH2 [Compound 94]” here?
**A.** The MC1/MC4 selectivity was 16.97.

**Q.** For “Ac-Tyr-Arg-cyclo[Cys-Glu-(1-Me-His)-D-Phe-Arg-Trp-Cys]-NH2 [Compound 81]”, which MC1/MC4 selectivity is on record?
**A.** Its MC1/MC4 selectivity is 101.69.

**Q.** How did the MC1/MC4 selectivity turn out when “Ac-Tyr-Arg-cyclo[Cys-Glu-(1-benzyl-D-His)-D-Phe-Arg-Trp-Cys]-NH2 [Compound 100]” was run?
**A.** The MC1/MC4 selectivity was 1.67.

**Q.** “Ac-Tyr-Arg-cyclo[Cys-Glu-(1-benzyl-His)-D-Phe-Arg-Trp-Cys]-NH2 [Compound 99]” was tested. Which MC1/MC4 selectivity did it give?
**A.** Its MC1/MC4 selectivity is 88.42.

**Q.** “Ac-Tyr-Arg-cyclo[Cys-Glu-(1-pyrazolyl-Ala)-D-Phe-Arg-Trp-Cys]-NH2 [Compound 102]” was tested. Which MC1/MC4 selectivity did it give?
**A.** Its MC1/MC4 selectivity is 4.76.

**Q.** For “Ac-Tyr-Arg-cyclo[Cys-Glu-(2-pyrazine-Ala)-D-Phe-Arg-Trp-Cys]-NH2 [Compound 105]”, which MC1/MC4 selectivity is on record?
**A.** The MC1/MC4 selectivity was 24.04.

**Q.** “Ac-Tyr-Arg-cyclo[Cys-Glu-(3-Me-His)-D-Phe-Arg-Trp-Cys]-NH2 [Compound 96]” was tested. Which MC1/MC4 selectivity did it give?
**A.** Its MC1/MC4 selectivity is 20.87.

**Q.** How did the MC1/MC4 selectivity turn out when “Ac-Tyr-Arg-cyclo[Cys-Glu-(4-phenyl-1H-imidazol-2-yl-Ala)-D-Phe-Arg-Trp-Cys]-NH2 [Compound 103]” was run?
**A.** Its MC1/MC4 selectivity is 75.59.

**Q.** Which MC1/MC4 selectivity does the source give for “Ac-Tyr-Arg-cyclo[Cys-Glu-(4-phenyl-1H-imidazol-2-yl-D-Ala)-D-Phe-Arg-Trp-Cys]-NH2 [Compound 104]” here?
**A.** Its MC1/MC4 selectivity is 3.68.
